This test has as its target T1, human full-length recombinant PKC βII (Homo sapiens, UniProt P05771).
T1 construct: Active human full-length recombinant PKC βII; purchased Invitrogen GmbH, Darmstadt, Germany
Kind of test: Determination of PKC βII inhibition (Caliper mobility-shift kinase assay, Fluorescein-RFARKGSLRQKNV peptide substrate). It is filed as biochemical. The settings on record: example compounds at a final concentration of 1.14 μM (±0.15 μM). In short, it runs like this: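 Compounds were tested at 1.14 μM final. Enzyme was activated by PS, DAG and CaCl2 in Hepes pH 7.4 with MgCl2, with substrate 3 μM and ATP 120 μM as pre-mix concentrations. After 60 min at 32 °C and an EDTA stop, Caliper separation gave fractional turnover, which was normalised to no-compound and no-enzyme controls.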

T1 sequence (P05771 1-673 isoform P05771-2): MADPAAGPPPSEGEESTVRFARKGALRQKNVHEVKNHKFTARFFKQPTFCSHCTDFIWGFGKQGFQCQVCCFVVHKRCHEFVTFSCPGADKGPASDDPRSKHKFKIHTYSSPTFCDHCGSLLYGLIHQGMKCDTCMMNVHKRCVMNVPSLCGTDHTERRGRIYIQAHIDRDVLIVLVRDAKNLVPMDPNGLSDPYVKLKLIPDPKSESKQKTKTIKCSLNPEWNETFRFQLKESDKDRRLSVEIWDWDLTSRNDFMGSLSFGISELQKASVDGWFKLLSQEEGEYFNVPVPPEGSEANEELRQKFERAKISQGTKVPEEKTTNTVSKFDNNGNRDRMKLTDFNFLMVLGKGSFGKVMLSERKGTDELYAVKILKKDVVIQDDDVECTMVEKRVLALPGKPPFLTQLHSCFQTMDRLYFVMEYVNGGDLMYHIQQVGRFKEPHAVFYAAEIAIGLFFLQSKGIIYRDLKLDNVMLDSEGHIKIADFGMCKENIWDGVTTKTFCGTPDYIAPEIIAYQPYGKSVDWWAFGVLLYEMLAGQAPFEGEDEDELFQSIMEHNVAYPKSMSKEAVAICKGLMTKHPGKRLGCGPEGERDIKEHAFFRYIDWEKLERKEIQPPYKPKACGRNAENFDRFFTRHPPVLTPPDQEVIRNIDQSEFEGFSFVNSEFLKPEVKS

Turning to `Cc1n[nH]c2nc(-c3ccc(O)cc3)cc(C(=O)N3CCNCC3c3ccccc3C(F)(F)F)c12` (stereo not drawn) [Example 93, [6-(4-Hydroxy-phenyl)-3-methyl-1H-pyrazolo[3,4-b]pyridin-4-yl]-[2-(2-trifluoromethyl-phenyl)-piperazin-1-yl]-methanone], the inhibition at 1.14 µM was determined as 79%.
Turning to `Cc1n[nH]c2nc(-c3ccc(O)cc3)cc(C(=O)N3CCNCC3c3ccc(C(C)C)cc3)c12` (stereo not drawn) [Example 94, [6-(4-Hydroxy-phenyl)-3-methyl-1H-pyrazolo[3,4-b]pyridin-4-yl]-[2-(4-isopropyl-phenyl)-piperazin-1-yl]-methanone], the inhibition at 1.14 µM was determined as 90%.
For the compound `Cc1n[nH]c2nc(-c3ccc(O)cc3)cc(C(=O)N3CCNCC3c3ccccc3F)c12` (stereo not drawn) [Example 95, [2-(2-Fluoro-phenyl)-piperazin-1-yl]-[6-(4-hydroxy-phenyl)-3-methyl-1H-pyrazolo[3,4-b]pyridin-4-yl]-methanone], the inhibition at 1.14 µM is 99%.
To `Cc1n[nH]c2nc(-c3ccc(O)cc3)cc(C(=O)N3CCNCC3c3ccc(F)cc3F)c12` (stereo not drawn) [Example 96, [2-(2,4-Difluoro-phenyl)-piperazin-1-yl]-[6-(4-hydroxy-phenyl)-3-methyl-1H-pyrazolo[3,4-b]pyridin-4-yl]-methanone] belongs 98%; to `Cc1n[nH]c2nc(-c3ccc(O)cc3)cc(C(=O)N3CCNCC3c3ccc(C(F)(F)F)cc3)c12` (stereo not drawn) [Example 97, [6-(4-Hydroxy-phenyl)-3-methyl-1H-pyrazolo[3,4-b]pyridin-4-yl]-[2-(4-trifluoromethyl-phenyl)-piperazin-1-yl]-methanone], 96%.
To `Cc1n[nH]c2nc(-c3ccc(O)cc3)cc(C(=O)NCC3CNC3)c12` [Example 98, 6-(4-Hydroxy-phenyl)-3-methyl-1H-pyrazolo[3,4-b]pyridine-4-carboxylic acid (azetidin-3-ylmethyl)-amide] belongs 89%; to `Cc1n[nH]c2nc(-c3ccc(O)cc3)cc(C(=O)N3CCNCC3c3cccc(C(F)(F)F)c3)c12` (stereo not drawn) [Example 99, [6-(4-Hydroxy-phenyl)-3-methyl-1H-pyrazolo[3,4-b]pyridin-4-yl]-[2-(3-trifluoromethyl-phenyl)-piperazin-1-yl]-methanone], 97%.
With `Cc1n[nH]c2nc(-c3ccc(O)cc3)cc(C(=O)N3CCNCC3c3c(F)cccc3F)c12` (stereo not drawn) [Example 100, [2-(2,6-Difluoro-phenyl)-piperazin-1-yl]-[6-(4-hydroxy-phenyl)-3-methyl-1H-pyrazolo[3,4-b]pyridin-4-yl]-methanone], the inhibition at 1.14 µM is 96%.
To `Cc1n[nH]c2nc(-c3ccc(O)cc3)cc(C(=O)N3CCNCC3c3cccc(Br)c3)c12` (stereo not drawn) [Example 101, [2-(3-Bromo-phenyl)-piperazin-1-yl]-[6-(4-hydroxy-phenyl)-3-methyl-1H-pyrazolo[3,4-b]pyridin-4-yl]-methanone] belongs 99%; to `Cc1n[nH]c2nc(-c3ccc(O)cc3)cc(C(=O)N3CCNCC3c3ccccc3Cl)c12` (stereo not drawn) [Example 102, [2-(2-Chloro-phenyl)-piperazin-1-yl]-[6-(4-hydroxy-phenyl)-3-methyl-1H-pyrazolo[3,4-b]pyridin-4-yl]-methanone], 93%; to `Cc1n[nH]c2nc(-c3ccc(O)cc3)cc(C(=O)N[C@H]3CC[C@@H](N)CC3)c12` [Example 103, 6-(4-Hydroxy-phenyl)-3-methyl-1H-pyrazolo[3,4-b]pyridine-4-carboxylic acid (cis-4-amino-cyclohexyl)-amide], 72%.
`Cc1n[nH]c2nc(-c3ccc(O)cc3)cc(C(=O)NC(CN)c3ccccc3)c12` (stereo not drawn) [Example 104, 6-(4-Hydroxy-phenyl)-3-methyl-1H-pyrazolo[3,4-b]pyridine-4-carboxylic acid (2-amino-1-phenyl-ethyl)-amide]: the inhibition at 1.14 µM was determined as 94%.

Broadly, the inhibition is how much of the control response was suppressed.
